We go through 1 compound from publication PMC3830123 (Biomolecules & Therapeutics, 2013).

Assay type in all cases: biochemical
For assay [1], the target named is T1, Rat brain mitochondrial MAO (MAO-A) (Rattus norvegicus, UniProt P21396).
T1 sequence (P21396 1-526): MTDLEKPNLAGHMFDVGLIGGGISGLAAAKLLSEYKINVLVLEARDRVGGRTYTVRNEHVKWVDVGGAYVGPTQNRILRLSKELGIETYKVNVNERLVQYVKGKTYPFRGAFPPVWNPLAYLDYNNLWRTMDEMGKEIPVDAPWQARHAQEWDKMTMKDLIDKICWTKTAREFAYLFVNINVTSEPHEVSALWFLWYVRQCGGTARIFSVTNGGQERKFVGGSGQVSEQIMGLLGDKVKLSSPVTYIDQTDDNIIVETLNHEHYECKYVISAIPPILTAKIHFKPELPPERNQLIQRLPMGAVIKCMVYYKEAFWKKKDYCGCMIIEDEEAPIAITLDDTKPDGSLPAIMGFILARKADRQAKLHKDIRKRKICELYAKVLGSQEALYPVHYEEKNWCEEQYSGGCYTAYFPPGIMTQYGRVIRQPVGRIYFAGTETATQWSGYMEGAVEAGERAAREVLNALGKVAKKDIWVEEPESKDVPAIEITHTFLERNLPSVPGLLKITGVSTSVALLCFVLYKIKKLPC
The assay can be described thus: MAO-A assay in vitro, serotonin as substrate.

In assay [2] the target is T2, Rat liver mitochondrial MAO (MAO-B) (Rattus norvegicus, UniProt P19643).
T2 sequence (P19643 1-520): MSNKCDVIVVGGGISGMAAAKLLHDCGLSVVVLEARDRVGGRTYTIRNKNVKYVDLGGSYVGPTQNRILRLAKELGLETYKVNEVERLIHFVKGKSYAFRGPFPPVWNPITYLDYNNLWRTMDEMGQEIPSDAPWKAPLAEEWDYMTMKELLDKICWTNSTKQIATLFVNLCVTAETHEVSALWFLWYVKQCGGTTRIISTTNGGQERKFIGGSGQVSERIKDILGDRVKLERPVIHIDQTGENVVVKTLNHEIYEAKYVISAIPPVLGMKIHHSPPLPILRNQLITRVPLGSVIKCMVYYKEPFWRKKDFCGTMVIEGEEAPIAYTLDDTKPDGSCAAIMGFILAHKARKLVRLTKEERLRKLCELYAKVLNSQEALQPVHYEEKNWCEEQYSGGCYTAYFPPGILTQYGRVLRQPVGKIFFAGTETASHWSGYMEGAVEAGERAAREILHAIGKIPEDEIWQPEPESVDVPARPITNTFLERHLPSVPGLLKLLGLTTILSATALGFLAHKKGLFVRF
The assay can be described thus: MAO-B assay in vitro, benzylamine as substrate. The following applies: IC50 values MAO-B, isolated compounds, Table 2.

The target in assay [3] is T3, dopamine β-hydroxylase (DBH) (Homo sapiens, UniProt P09172).
T3 sequence (P09172 1-617): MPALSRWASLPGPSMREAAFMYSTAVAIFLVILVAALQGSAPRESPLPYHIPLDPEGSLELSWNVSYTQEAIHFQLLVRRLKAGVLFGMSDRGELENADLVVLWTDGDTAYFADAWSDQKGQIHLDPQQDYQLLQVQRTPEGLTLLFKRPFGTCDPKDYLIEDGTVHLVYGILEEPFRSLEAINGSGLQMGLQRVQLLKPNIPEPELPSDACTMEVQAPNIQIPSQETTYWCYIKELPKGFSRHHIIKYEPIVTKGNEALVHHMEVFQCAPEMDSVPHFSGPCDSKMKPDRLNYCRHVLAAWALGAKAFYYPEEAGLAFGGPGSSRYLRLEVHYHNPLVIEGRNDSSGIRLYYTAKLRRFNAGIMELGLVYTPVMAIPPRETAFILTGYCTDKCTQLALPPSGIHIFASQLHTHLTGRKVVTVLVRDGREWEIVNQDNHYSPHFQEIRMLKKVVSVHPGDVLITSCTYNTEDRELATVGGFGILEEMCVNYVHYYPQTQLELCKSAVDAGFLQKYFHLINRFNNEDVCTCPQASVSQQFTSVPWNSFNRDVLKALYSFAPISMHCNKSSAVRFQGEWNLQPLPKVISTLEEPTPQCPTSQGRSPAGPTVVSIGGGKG
The assay is described as follows: DBH assay in vitro, tyramine as substrate.

Consider `CC(C)=CCC/C(C)=C/Cc1c(O)ccc(C(=O)/C=C/c2ccc(O)cc2)c1O` [Xanthoangelol], for which the IC50 stood at 43.4 µM in assay [1], 43.9 µM in assay [2] and 516 µM in assay [3].

As usually defined, the IC50 is the concentration that gives 50% inhibition. Low values mean inhibition by little substance, high ones a need for much substance.
